Laboratory results taken from patent US12038447B2 (priority 2017, dated 2024).
Like-named read-outs stand apart in the source and are kept apart here.

Tests used:
[1] = pH titration of rinsed rSAM layers, ellipsometric thickness; format: physicochemical; conditions: on MBA SAMs
[2] = tested on: human serum albumin (HSA) and lysozyme (LYZ); test: Protein resistance of E0-6 rSAMs on MHA gold, IRAS amide I and ellipsometry; format: binding; conditions: HSA or LYZ 1 mg/mL, pH 8, rSAM on MHA gold
[3] = Fluorescence recovery after photobleaching (FRAP), lateral fluidity; format: physicochemical; conditions: 1 mol % FAM tagged amidine in E2 on COOH quartz
[4] = tested on: MC3T3-E1 cells; test: Cell attachment and detachment on GRGDS functionalized rSAMs; conditions: for reduction in average projected cell area on MDSA versus MBA-SAMs: absence of GRGDS 3 in the layer; for average projected cell area: 5 hours
[5] = Critical micelle concentration from assembly kinetics, in situ ellipsometry; format: physicochemical; conditions: pH 9 buffer
[6] = Air and rinse stability of rSAMs, rinsing and drying cycles; format: physicochemical; conditions: rSAM on MHA-gold
[7] = Water solubility (qualitative); format: physicochemical
[8] = biological target: HA; conditions: cited from earlier work
[9] = tested on: Influenza A H5N1 (A/Anhui/2005) hemagglutinin (HA); format: binding
[10] = tested on: deactivated influenza virus H5N1; format: binding, Influenza A Virus, A/Anhui/01/2005(H5N1)
[11] = 100 μM added to cells on XGRGDS3,filler2=0.25 on MBA SAMs, 30 minutes

N=C(N)c1ccc(OCCCCCCCCCCOc2ccc(CCOCCOCCO)cc2)cc1 [E2, 4-[10-(4-{2-[2-(2-Hydroxy-ethoxy)-ethoxy]-ethyl}-phenoxy)-decyloxy]-benzamidine]
pH resistance of rinsed layers [1]: up to 6 | reduction of protein adsorption based on amide I band intensity [2]: more than 50% | diffusion coefficient from FRAP [3]: matching literature values of supported lipid bilayers | reduction in average projected cell area on MDSA versus MBA-SAMs [4]: 28%

N=C(N)c1ccc(OCCCCCCCCCCOc2ccc(CCOCCOCCOCCOCCO)cc2)cc1 [E4, 4-(10-{4-[2-(2-{2-[2-(2-Hydroxy-ethoxy)-ethoxy]-ethoxy}-ethoxy)-ethyl]-phenoxy}-decyloxy)-benzamidine]
critical micelle concentration (CMC) [5]: approximately 5 μM | protein adsorption / resistance [2]: less resistant | reduction in average projected cell area ([4]; 100 μM added to cells on XGRGDS3,filler2=0.25 on MBA SAMs, 37° C., 30 minutes): 65% | cell shape after addition [4, 11]: dramatic transition from a spread-out cell shape to a non-adhesive round shape | surface coverage by adherent cells normalized on average projected cell area ([4]; XGRGDS3,filler2=0 on MDSA-SAMs): 12% | average projected cell area ([4]; XGRGDS3,filler2=0 on MDSA-SAMs): 1634 μm^2 | reduction in average projected cell area on MDSA versus MBA-SAMs [4]: no significant differences | cells after replacing medium with fresh medium ([4]; after 100 μM exposure, fresh medium, 37° C., 24 hrs): retain their adhesive characteristic

N=C(N)c1ccc(OCCCCCCCCCCOc2ccc(CCOCCOCCOCCOCCOCCOCCO)cc2)cc1 [E6, 4-{10-[4-(2-{2-[2-(2-{2-[2-(2-Hydroxy-ethoxy)-ethoxy]-ethoxy}-ethoxy)-ethoxy]-ethoxy}-ethyl)-phenoxy]-decyloxy}-benzamidine]
protein adsorption / resistance [2]: less resistant | decrease in layer thickness after 2 cycles of rinsing with pH 8 buffer and drying [6]: 9 Å

C=C(C(=O)CNN[C@@H](CCCNC(=N)N)C(=O)NCC(=O)N[C@@H](CC(=O)O)C(=O)N[C@@H](CO)C(=O)O)c1cn(COCCOCCc2ccc(OCCCCCCCCCCOc3ccc(C(=N)N)cc3)cc2)nn1 [GRGDS 3, (2S,5S,11S)-16-(1-((2-(4-((10-(4-carbamimidoylphenoxy)decyl)oxy)phenethoxy)ethoxy)methyl)-1H-1,2,3-triazol-4-yl)-5-(carboxymethyl)-11-(3-guanidinopropyl)-2-(hydroxymethyl)-4,7,10,15-tetraoxo-3,6,9,12,13-pentaazaheptadec-16-enoic acid]
average projected cell area ([4]; XGRGDS3,filler2=0.1 on MDSA-SAMs): 1183 μm^2 | average projected cell area ([4]; XGRGDS3,filler2=0.25 on MDSA-SAMs): 1282 μm^2 | coverage of adhered cells versus amount in layer ([4]; XGRGDS3=0-0.25, 5 hours): correlated with the increasing amount of GRGDS3 | average projected cell area versus surface without GRGDS3 ([4]; with filler 1, XGRGDS3=0.25 on MBA SAMs): an increase in average projected cell area | average projected cell area versus GRGDS density ([4]; with filler 1 on MDSA SAMs): no distinct differences | average projected cell area versus surface without GRGDS3 ([4]; with filler 2, XGRGDS3=0.1 and 0.25 on MDSA SAMs): a decrease in average projected cell area | average projected cell area versus GRGDS density ([4]; with filler 2 on MBA SAMs): no distinct differences

N=C(N)NCCC[C@H](N)C(=O)O [L-Arginine, reference compound]
cell shape after addition [4, 11]: most of the cells remained the spread-out shape

Cl.N=C(N)c1ccc(OCCCCCCCCCCOc2ccc(CCO)cc2)cc1 [compound 1, Amino(4-(10-(4-(2-hydroxyethyl)phenoxy)decyloxy)phenyl)methaniminium chloride]
water solubility [7]: poorly water-soluble | water solubility ([7]; listed as E0): poorly water soluble | protein adsorption / resistance [2]: most pronounced protein adsorption

CC(=O)NC1C(O)CC(OCCc2cn(CCOCCOCCc3ccc(OCCCCCCCCCCOc4ccc(C(=N)N)cc4)cc3)nn2)(C(=O)O)OC1C(O)C(O)CO (stereo not drawn) [compound 2, 5-Acetylamino-2-[2-(1-{2-[2-(2-{4-[10-(4-carbamimidoyl-phenoxy)-decyloxy]-phenyl}-ethoxy)-ethoxy]-ethyl}-1H-[1,2,3]triazol-4-yl)-ethoxy]-4-hydroxy-6-(1,2,3-trihydroxy-propyl)-tetrahydro-pyran-2-carboxylic acid]
water solubility [7]: highly water soluble

CO[C@]1(C(=O)O)C[C@H](O)[C@@H](NC(C)=O)[C@H]([C@H](O)[C@H](O)CO)O1 [α-methyl sialoside]
Kd ([8]; read-out: Kd per SA or HA monomer unit): 2 mM

mucin
Ki ([8]; read-out: Ki of binding to HA): 0.002 mM | effect of preincubating HA with mucin on HA binding to rSAM-2 [9]: effectively suppressed | effect of mucin masking on virus adsorption to rSAM-2 [10]: effectively suppressed
